Results from PubChem BioAssay AID1963980 (Molecular Pharmacology Branch, DTP, NCI, 2024).
One block for each compound: values may come before it.

System: 475296-252-R-J1-PDC spheroid viability
Experiment: Anticancer human tumor 475296-252-R-J1-PDC patient-derived rectal carcinoma cell line growth inhibition [PI3K]
Conditions: spheroids with HUVEC and MSC; for IC50: curve of first compound; for viability, T/C: stronger effect = lower value
Method in brief: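 We assembled tumor spheroids that included a stromal compartment of HUVEC and MSCs, then exposed them to targeted agents alone and together with PI3K pathway inhibitors. Concentration series descended by half-log from clinically achievable Cmax levels. Viability served as the endpoint.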

[1] = second compound 0.0316 µM, first compound 0.0316 µM
[2] = second compound 0.0316 µM, first compound 0.1 µM
[3] = second compound 0.0316 µM, first compound 0.316 µM
[4] = second compound 0.0316 µM, first compound 1 µM
[5] = second compound 0.0316 µM, first compound 3.16 µM
[6] = second compound 0.0316 µM, first compound 10 µM
[7] = second compound 0.1 µM, first compound 0.0316 µM
[8] = second compound 0.1 µM, first compound 0.1 µM
[9] = second compound 0.1 µM, first compound 0.316 µM
[10] = second compound 0.1 µM, first compound 1 µM
[11] = second compound 0.1 µM, first compound 3.16 µM
[12] = second compound 0.1 µM, first compound 10 µM
[13] = second compound 0.316 µM, first compound 0.0316 µM
[14] = second compound 0.316 µM, first compound 0.1 µM
[15] = second compound 0.316 µM, first compound 0.316 µM
[16] = second compound 0.316 µM, first compound 1 µM
[17] = second compound 0.316 µM, first compound 3.16 µM
[18] = second compound 0.316 µM, first compound 10 µM
[19] = second compound 1 µM, first compound 0.0316 µM
[20] = second compound 1 µM, first compound 0.1 µM
[21] = second compound 1 µM, first compound 0.316 µM
[22] = second compound 1 µM, first compound 1 µM
[23] = second compound 1 µM, first compound 3.16 µM
[24] = second compound 1 µM, first compound 10 µM
[25] = second compound 3.16 µM, first compound 0.0316 µM
[26] = second compound 3.16 µM, first compound 0.1 µM
[27] = second compound 3.16 µM, first compound 0.316 µM
[28] = second compound 3.16 µM, first compound 1 µM
[29] = second compound 3.16 µM, first compound 3.16 µM
[30] = second compound 3.16 µM, first compound 10 µM
[31] = second compound 10 µM, first compound 0.0316 µM
[32] = second compound 10 µM, first compound 0.1 µM
[33] = second compound 10 µM, first compound 0.316 µM
[34] = second compound 10 µM, first compound 1 µM
[35] = second compound 10 µM, first compound 3.16 µM
[36] = second compound 10 µM, first compound 10 µM
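Also: spheroids exposed to agents for seven days before readout.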

SMILES: CC(Cn1ccc(-c2ccc(C#N)c(Cl)c2)n1)NC(=O)c1cc(C(C)O)[nH]n1 (stereo not given) + Cc1nc(NC(=O)N2CCCC2C(N)=O)sc1-c1ccnc(C(C)(C)C(F)(F)F)c1
IC50 (second compound 0.0316 µM): > 10 µM | IC50 (second compound 0.1 µM): > 10 µM | IC50 (second compound 0.316 µM): > 10 µM | IC50 (second compound 1 µM): > 10 µM | IC50 (second compound 3.16 µM): > 10 µM | IC50 (second compound 10 µM): > 10 µM | viability, T/C [1]: 105% | viability, T/C [2]: 108% | viability, T/C [3]: 110% | viability, T/C [4]: 98.4% | viability, T/C [5]: 105% | viability, T/C [6]: 107% | viability, T/C [7]: 98.1% | viability, T/C [8]: 99.7% | viability, T/C [9]: 111% | viability, T/C [10]: 105% | viability, T/C [11]: 120% | viability, T/C [12]: 112% | viability, T/C [13]: 93.1% | viability, T/C [14]: 104% | viability, T/C [15]: 103% | viability, T/C [16]: 97.9% | viability, T/C [17]: 102% | viability, T/C [18]: 99.1% | viability, T/C [19]: 95.9% | viability, T/C [20]: 108% | viability, T/C [21]: 91.4% | viability, T/C [22]: 99.2% | viability, T/C [23]: 111% | viability, T/C [24]: 111% | viability, T/C [25]: 98.4% | viability, T/C [26]: 96.1% | viability, T/C [27]: 103% | viability, T/C [28]: 105% | viability, T/C [29]: 105% | viability, T/C [30]: 101% | viability, T/C [31]: 90.2% | viability, T/C [32]: 84.3% | viability, T/C [33]: 97% | viability, T/C [34]: 98.9% | viability, T/C [35]: 95% | viability, T/C [36]: 91.2%

SMILES: Cn1ncc(Cl)c1-c1cc(C(=O)NC(CN)Cc2cccc(F)c2)sc1Cl (stereo not given) + Cc1nc(NC(=O)N2CCCC2C(N)=O)sc1-c1ccnc(C(C)(C)C(F)(F)F)c1
IC50 (second compound 0.0316 µM): > 10 µM | IC50 (second compound 0.1 µM): > 10 µM | IC50 (second compound 0.316 µM): > 10 µM | IC50 (second compound 1 µM): > 10 µM | IC50 (second compound 3.16 µM): 8.01 µM | IC50 (second compound 10 µM): 4.16 µM | viability, T/C [1]: 91.1% | viability, T/C [2]: 74.3% | viability, T/C [3]: 75.3% | viability, T/C [4]: 67.1% | viability, T/C [5]: 71.3% | viability, T/C [6]: 67.4% | viability, T/C [7]: 96.9% | viability, T/C [8]: 85.2% | viability, T/C [9]: 66.8% | viability, T/C [10]: 54% | viability, T/C [11]: 64.4% | viability, T/C [12]: 67.4% | viability, T/C [13]: 77.6% | viability, T/C [14]: 83.5% | viability, T/C [15]: 73.4% | viability, T/C [16]: 55.9% | viability, T/C [17]: 67.3% | viability, T/C [18]: 54% | viability, T/C [19]: 84.5% | viability, T/C [20]: 85.4% | viability, T/C [21]: 78% | viability, T/C [22]: 58.5% | viability, T/C [23]: 62.8% | viability, T/C [24]: 51.2% | viability, T/C [25]: 83.1% | viability, T/C [26]: 78.8% | viability, T/C [27]: 84.2% | viability, T/C [28]: 67% | viability, T/C [29]: 61.5% | viability, T/C [30]: 47.2% | viability, T/C [31]: 84.8% | viability, T/C [32]: 78.8% | viability, T/C [33]: 81.7% | viability, T/C [34]: 69.3% | viability, T/C [35]: 57.6% | viability, T/C [36]: 28.5%

SMILES: Cn1nccc1Nc1nccc(-c2ccn(C(CO)c3ccc(Cl)c(F)c3)c(=O)c2)n1 (stereo not given) + Cc1nc(NC(=O)N2CCCC2C(N)=O)sc1-c1ccnc(C(C)(C)C(F)(F)F)c1
IC50 (second compound 0.0316 µM): > 10 µM | IC50 (second compound 0.1 µM): > 10 µM | IC50 (second compound 0.316 µM): > 10 µM | IC50 (second compound 1 µM): > 10 µM | IC50 (second compound 3.16 µM): > 10 µM | IC50 (second compound 10 µM): 1.44 µM | viability, T/C [1]: 108% | viability, T/C [2]: 94.2% | viability, T/C [3]: 106% | viability, T/C [4]: 88.9% | viability, T/C [5]: 99.6% | viability, T/C [6]: 79.2% | viability, T/C [7]: 95.8% | viability, T/C [8]: 87.3% | viability, T/C [9]: 94.6% | viability, T/C [10]: 91.4% | viability, T/C [11]: 99.6% | viability, T/C [12]: 75.9% | viability, T/C [13]: 105% | viability, T/C [14]: 108% | viability, T/C [15]: 87.2% | viability, T/C [16]: 85% | viability, T/C [17]: 81.1% | viability, T/C [18]: 68.5% | viability, T/C [19]: 92.1% | viability, T/C [20]: 91.5% | viability, T/C [21]: 91% | viability, T/C [22]: 84.5% | viability, T/C [23]: 88% | viability, T/C [24]: 59.9% | viability, T/C [25]: 85.9% | viability, T/C [26]: 89.3% | viability, T/C [27]: 79.8% | viability, T/C [28]: 79.1% | viability, T/C [29]: 58.8% | viability, T/C [30]: 50.7% | viability, T/C [31]: 87.7% | viability, T/C [32]: 86% | viability, T/C [33]: 83.7% | viability, T/C [34]: 63.1% | viability, T/C [35]: 21.8% | viability, T/C [36]: 8.46%

Continued, in another order:

IC50 (second compound 0.0316 µM): > 10 µM | IC50 (second compound 0.1 µM): > 10 µM | IC50 (second compound 0.316 µM): 8.41 µM | IC50 (second compound 1 µM): 4.42 µM | IC50 (second compound 3.16 µM): 0.689 µM | IC50 (second compound 10 µM): 0.267 µM
SMILES: C#Cc1c(F)ccc2cc(O)cc(-c3ncc4c(N5CC6CCC(C5)N6)nc(OCC56CCCN5CC(F)C6)nc4c3F)c12 (stereo not given) + Cc1nc(NC(=O)N2CCCC2C(N)=O)sc1-c1ccnc(C(C)(C)C(F)(F)F)c1
viability, T/C [1]: 88.4% | viability, T/C [2]: 84.1% | viability, T/C [3]: 88.5% | viability, T/C [4]: 74.2% | viability, T/C [5]: 67.9% | viability, T/C [6]: 66% | viability, T/C [7]: 87.1% | viability, T/C [8]: 78.9% | viability, T/C [9]: 88.1% | viability, T/C [10]: 64.6% | viability, T/C [11]: 66.9% | viability, T/C [12]: 59% | viability, T/C [13]: 80.2% | viability, T/C [14]: 84.7% | viability, T/C [15]: 73.6% | viability, T/C [16]: 71.7% | viability, T/C [17]: 61.1% | viability, T/C [18]: 48% | viability, T/C [19]: 78.4% | viability, T/C [20]: 82.8% | viability, T/C [21]: 72% | viability, T/C [22]: 65.5% | viability, T/C [23]: 60.3% | viability, T/C [24]: 32.7% | viability, T/C [25]: 89.1% | viability, T/C [26]: 75.3% | viability, T/C [27]: 65.1% | viability, T/C [28]: 44.8% | viability, T/C [29]: 21.7% | viability, T/C [30]: 10.4% | viability, T/C [31]: 73.4% | viability, T/C [32]: 70.2% | viability, T/C [33]: 46.6% | viability, T/C [34]: 9.2% | viability, T/C [35]: 5.28% | viability, T/C [36]: 3.54%

IC50 (second compound 0.0316 µM): > 10 µM | IC50 (second compound 0.1 µM): > 10 µM | IC50 (second compound 0.316 µM): > 10 µM | IC50 (second compound 1 µM): > 10 µM | IC50 (second compound 3.16 µM): > 10 µM | IC50 (second compound 10 µM): > 10 µM
SMILES: C=CC(=O)N1CCN(c2nc(=O)n(-c3c(C)ccnc3C(C)C)c3nc(-c4c(O)cccc4F)c(F)cc23)C(C)C1 (stereo not given) + Cc1nc(NC(=O)N2CCCC2C(N)=O)sc1-c1ccnc(C(C)(C)C(F)(F)F)c1
viability, T/C [1]: 90% | viability, T/C [2]: 79.2% | viability, T/C [3]: 99.9% | viability, T/C [4]: 89.7% | viability, T/C [5]: 106% | viability, T/C [6]: 102% | viability, T/C [7]: 105% | viability, T/C [8]: 75.8% | viability, T/C [9]: 106% | viability, T/C [10]: 82% | viability, T/C [11]: 104% | viability, T/C [12]: 108% | viability, T/C [13]: 90.4% | viability, T/C [14]: 107% | viability, T/C [15]: 96.4% | viability, T/C [16]: 103% | viability, T/C [17]: 96.8% | viability, T/C [18]: 95% | viability, T/C [19]: 88% | viability, T/C [20]: 94.1% | viability, T/C [21]: 99.8% | viability, T/C [22]: 97.5% | viability, T/C [23]: 109% | viability, T/C [24]: 95.8% | viability, T/C [25]: 83.6% | viability, T/C [26]: 85% | viability, T/C [27]: 95.2% | viability, T/C [28]: 87.2% | viability, T/C [29]: 92.9% | viability, T/C [30]: 93.8% | viability, T/C [31]: 94.6% | viability, T/C [32]: 87.8% | viability, T/C [33]: 95.5% | viability, T/C [34]: 94.2% | viability, T/C [35]: 95.2% | viability, T/C [36]: 80.6%
